# According to ChEMBL document CHEMBL1146101, “Fluorine-substituted cyclofenil derivatives as estrogen receptor ligands: synthesis and structure-affinity relationship study of potential positron emission tomography agents for imaging estrogen receptors in breast cancer” (J Med Chem, 2006):
# Experiments:
# [1] = biological target: Estrogen receptor beta (Homo sapiens) (UniProt Q92731); assay: Binding affinity to human ERbeta relative to estradiol by radiometric binding assay
# [2] = biological target: Estrogen receptor alpha (Homo sapiens) (UniProt P03372); assay: Binding affinity to human ERalpha relative to estradiol by radiometric binding assay
# Estrogen receptor alpha (Homo sapiens), sequence (P03372 whole entry, looked up): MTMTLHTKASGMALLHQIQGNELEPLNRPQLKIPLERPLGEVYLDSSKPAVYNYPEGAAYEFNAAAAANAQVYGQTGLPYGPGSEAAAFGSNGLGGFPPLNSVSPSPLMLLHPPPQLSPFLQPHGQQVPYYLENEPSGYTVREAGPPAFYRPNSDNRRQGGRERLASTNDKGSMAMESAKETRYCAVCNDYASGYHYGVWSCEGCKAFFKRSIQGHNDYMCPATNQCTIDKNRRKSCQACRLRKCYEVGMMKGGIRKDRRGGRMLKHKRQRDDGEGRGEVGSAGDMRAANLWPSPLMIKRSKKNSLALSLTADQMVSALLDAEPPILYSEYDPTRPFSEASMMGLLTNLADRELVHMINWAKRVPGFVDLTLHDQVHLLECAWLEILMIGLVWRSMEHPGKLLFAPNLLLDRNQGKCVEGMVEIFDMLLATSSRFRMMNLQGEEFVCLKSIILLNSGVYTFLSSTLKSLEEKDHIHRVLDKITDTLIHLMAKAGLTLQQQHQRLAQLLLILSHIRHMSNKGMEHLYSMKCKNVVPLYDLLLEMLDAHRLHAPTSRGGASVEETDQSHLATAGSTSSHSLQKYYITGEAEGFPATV
# Homo sapiens = organism: Homo sapiens; assay: Selectivity for ERbeta over ERalpha
# Estrogen receptor beta (Homo sapiens), sequence (Q92731 whole entry, looked up): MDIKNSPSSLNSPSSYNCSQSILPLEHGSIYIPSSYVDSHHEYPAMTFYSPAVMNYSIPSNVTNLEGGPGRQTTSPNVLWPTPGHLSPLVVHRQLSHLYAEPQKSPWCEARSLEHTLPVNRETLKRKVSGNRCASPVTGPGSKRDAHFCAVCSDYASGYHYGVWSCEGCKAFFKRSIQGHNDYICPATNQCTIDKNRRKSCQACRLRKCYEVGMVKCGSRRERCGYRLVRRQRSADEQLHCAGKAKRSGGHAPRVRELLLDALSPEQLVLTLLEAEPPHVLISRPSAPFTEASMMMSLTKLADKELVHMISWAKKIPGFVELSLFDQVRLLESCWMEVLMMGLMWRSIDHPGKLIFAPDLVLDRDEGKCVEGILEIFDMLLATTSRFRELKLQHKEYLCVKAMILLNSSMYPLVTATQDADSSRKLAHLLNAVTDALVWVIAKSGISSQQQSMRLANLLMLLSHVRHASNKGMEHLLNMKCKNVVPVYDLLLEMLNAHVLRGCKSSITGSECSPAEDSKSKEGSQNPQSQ
Structure (SMILES),relative binding affinity (RBA) [1],relative binding affinity (RBA) [2],Ratio (Homo sapiens)
OCC1CCC(=C(c2ccc(O)cc2)c2ccc(O)cc2)CC1 (configuration not stated),0.841,0.846,0.99
CCC1CCC(=C(c2ccc(O)cc2)c2ccc(O)cc2)CC1 (configuration not stated),75.6,62.7,1.2
Oc1ccc(C(=C2CCC(CF)CC2)c2ccc(O)cc2)cc1 (configuration not stated),41.5,18.1,2.3
Oc1ccc(C(=C2CCCC(CCF)C2)c2ccc(O)cc2)cc1 (configuration not stated),129,122,1.1
CCOCC1CCC(=C(c2ccc(O)cc2)c2ccc(O)cc2)CC1 (configuration not stated),2.82,4.88,0.58
Oc1ccc(C(=C2CCCCC2)c2ccc(O)cc2)cc1,285,124,2.3
Oc1ccc(C(=C2CCCC2)c2ccc(O)cc2)cc1,137,17.8,7.7
Oc1ccc(C(=C2CCC(CCOCCCCF)CC2)c2ccc(O)cc2)cc1 (configuration not stated),1.45,3.77,0.38
CCOC(=O)C1CCC(=C(c2ccc(O)cc2)c2ccc(O)cc2)CC1 (configuration not stated),3.02,6.77,0.45
COC(=O)C(C(=O)OC)C1CCCC(=C(c2ccc(O)cc2)c2ccc(O)cc2)C1 (configuration not stated),0.234,19.5,0.012
COC(=O)CC1CCCC(=C(c2ccc(O)cc2)c2ccc(O)cc2)C1 (configuration not stated),10.3,58.5,0.18
Oc1ccc(C(=C2CCC(O)CC2)c2ccc(O)cc2)cc1 (configuration not stated),0.307,0.327,0.94
OCCC1CCC(=C(c2ccc(O)cc2)c2ccc(O)cc2)CC1 (configuration not stated),0.372,2.61,0.14
Oc1ccc(C(=C2CCC(F)CC2)c2ccc(O)cc2)cc1 (configuration not stated),61.8,27,2.3
Oc1ccc(C(=C2CCC2)c2ccc(O)cc2)cc1,20.5,5.61,3.7
OCCC1CCCC(=C(c2ccc(O)cc2)c2ccc(O)cc2)C1 (configuration not stated),57.6,33.9,1.7

# More lines, now with the values ahead:
relative binding affinity (RBA) [1],relative binding affinity (RBA) [2],Ratio (Homo sapiens),Structure (SMILES)
36.5,23.7,1.5,COC(=O)C1CCCC(=C(c2ccc(O)cc2)c2ccc(O)cc2)C1 (configuration not stated)
39.6,24.8,1.6,OCC1CCCC(=C(c2ccc(O)cc2)c2ccc(O)cc2)C1 (configuration not stated)
46.1,47.2,0.98,OCCCC1CCCC(=C(c2ccc(O)cc2)c2ccc(O)cc2)C1 (configuration not stated)
18.9,15.9,1.2,Oc1ccc(C(=C2CCC(CCF)CC2)c2ccc(O)cc2)cc1 (configuration not stated)
91.4,160,0.57,Oc1ccc(C(=C2CCCC(CCCF)C2)c2ccc(O)cc2)cc1 (configuration not stated)
354,110,3.2,Oc1ccc(C(=C2CCCCCC2)c2ccc(O)cc2)cc1
274,66.5,4.1,CC1CCC(=C(c2ccc(O)cc2)c2ccc(O)cc2)CC1 (configuration not stated)
1.72,10.7,0.16,COC(=O)CC1CCC(=C(c2ccc(O)cc2)c2ccc(O)cc2)CC1 (configuration not stated)
